Where “and” joins values, the source holds several entries; their conditions need not be identical. Equal values may be shown once. Where no end group is shown, it is not given here.

Experiment [1] deals with T1, CheB2 D55E mutant protein (Pseudomonas aeruginosa, UniProt Q9I6V9, D55E).
T1 construct: His-tag (pET28b) (N); made in house; host or cells: E. coli BL21 (DE3)
T1 sequence (Q9I6V9 1-349 D55E): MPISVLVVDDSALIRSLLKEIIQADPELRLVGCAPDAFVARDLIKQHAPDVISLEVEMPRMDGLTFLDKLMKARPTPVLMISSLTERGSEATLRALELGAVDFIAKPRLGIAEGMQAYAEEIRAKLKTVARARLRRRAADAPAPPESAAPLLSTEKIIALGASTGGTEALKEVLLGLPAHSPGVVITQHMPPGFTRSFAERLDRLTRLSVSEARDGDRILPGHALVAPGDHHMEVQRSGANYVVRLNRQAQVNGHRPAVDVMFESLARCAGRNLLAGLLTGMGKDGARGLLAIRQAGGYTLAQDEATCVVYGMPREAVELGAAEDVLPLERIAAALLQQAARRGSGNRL
The experiment is described as follows: Microcalorimetric titration (ITC) of the CheB2 D55E mutant with the GWEEF peptide. The class given is binding, Pseudomonas aeruginosa PAO1.
Method: All experiments were conducted on a VP microcalorimeter (Microcal, Amherst, MA, USA) at 25 °C. For the analysis of the CheB homologs of P. aeruginosa, 15–40 μM of proteins (dialyzed into 5-mM Tris/HCl, 5-mM Pipes, and 5-mM Mes, pH 7.0) were placed into the sample cell and titrated with 1–7-mM solution of the GWEEF peptide (synthesized by Biomedal S.L., Seville, Spain). […] All ligand solutions were prepared in dialysis buffer immediately before use. The mean enthalpies measured from the injection of the peptide into the buffer were subtracted from the raw titration data prior to data analysis with the “one binding site model” of the MicroCal version of ORIGIN.

The target in the next experiment is T2, CheB2 (Pseudomonas aeruginosa, UniProt Q9I6V9).
T2 construct: His-tag (pET28b) (N); made in house; host or cells: E. coli BL21 (DE3)
T2 sequence (Q9I6V9 whole entry): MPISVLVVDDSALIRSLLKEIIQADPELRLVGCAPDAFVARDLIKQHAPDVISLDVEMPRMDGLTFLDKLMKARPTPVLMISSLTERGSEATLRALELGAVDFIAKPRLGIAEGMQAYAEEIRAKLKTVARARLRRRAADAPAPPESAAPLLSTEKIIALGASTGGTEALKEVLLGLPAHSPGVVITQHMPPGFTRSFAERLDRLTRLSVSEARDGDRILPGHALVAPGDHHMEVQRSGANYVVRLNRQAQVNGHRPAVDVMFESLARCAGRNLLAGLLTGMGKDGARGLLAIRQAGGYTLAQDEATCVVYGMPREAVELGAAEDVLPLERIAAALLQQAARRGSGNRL
The experiment is described as follows: Microcalorimetric titration (ITC) of CheB2 with the McpB pentapeptide. More on the design: species or system Pseudomonas aeruginosa PAO1. The following applies: 25 °C, 15-40 μM protein in 5-mM Tris/HCl, 5-mM Pipes, 5-mM Mes, pH 7.0, titrated with 1-7 mM peptide, one binding site model, read-out: dissociation constant (KD).

Another experiment relates to CheR from E. coli. The following applies: cited from earlier work. An excerpt:
This pentapeptide, NWETF, represents an additional binding site for CheR and CheB [8, 9]. […] St ...

In general, Kd refers to the constant that tells how readily two partners part at equilibrium. As to GWEEF [GWEEF], the Kd in experiment [1] worked out at 56 ± 14 µM; at CheB2 it was 0.093 mM.

With “NWETF [C-terminal pentapeptide of E. coli Tar/Tsr and of eight P. atrosepticum SCRI1043 chemoreceptors]”, the Kd in the experiment on CheR from E. coli was 2000 nM and ~2000 nM.

These data come from article PMC7698151, “Evidence for Pentapeptide-Dependent and Independent CheB Methylesterases” (International Journal of Molecular Sciences, 2020).
